Measured values as given in US5354862A, “Preparation and the use of halopropargylated cyclic quaternary ammonium compounds as antimicrobial agents” (Rohm and Haas Company, priority 1993, dated 1994).
Read-outs that look alike come from different tables or passages of the source.

Key:
Aspergillus niger = test: Broth two-fold serial dilution MIC test; format: cell-based, Aspergillus niger (ATCC 6275)
In short: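 Two-fold broth serial dilution from 500 ppm down to 0.25 ppm, compound stock in acetone/methanol/water 5:3:2. Vessels inoculated with standardized spore suspension harvested from agar slants, incubated at a species-appropriate temperature, then scored for growth/no growth. MIC is the lowest concentration giving complete growth inhibition.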

Escherichia coli = test: Broth two-fold serial dilution MIC test; format: cell-based, Escherichia coli (ATCC 11229); conditions: Table 2, Ecol
In short: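 Broth two-fold serial dilutions ran from 500 down to 0.25 ppm, prepared from a stock in acetone/methanol/water (5:3:2). Each tube received a standardized bacterial suspension and was incubated at a temperature suited to the species. MIC is the lowest concentration giving complete growth inhibition.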

Proteus mirabilis = test: MIC test, side-by-side comparison; format: cell-based; conditions: Table 4 side-by-side, P. mirabilis; for MIC: Proteus mirabilis
Text: (§1) A minimum inhibitory concentration (MIC) value is obtained using a broth, two-fold serial dilution test performed as follows: A stock solution or dispersion of the test compound, typically at a concentration of 1%, is made in a 5:3:2 solvent solution of acetone. methanol, and water. A volume of the stock solution is dispensed into culture media to give an initial starting test concentration of 500 ppm compound.
(§2) When the test is ready to be done, each vessel in the dilution series, except the first vessel, contains an equal volume of compound free broth. The first vessel contains twice the volume of broth with the starting concentration of test compound. One half of the broth from the first vessel is transferred to the second vessel- After being mixed, one half the resulting volume is removed from the second vessel and transferred to the third vessel. The entire cycle is repeated sufficiently to give a series of concentrations amounting to 500, 250, 125, 63, 31, 16, 8, and 4, 2, 1, 0.5, 0.25 ppm respectively.
(§3) Each vessel is then inoculated with a cell suspension of the appropriate test organism. Bacteria are grown in broth, fungi on agar slants for a time and at a temperature appropriate to the species being tested, and algae are a mixture of green algae and blue-green bacteria grown in a nutrient media. At the end of the growth period, in the case of bacteria, the broth is vortexed to disperse the cells.
(§4) In the case of fungi, the spores are harvested by pipetting water onto the slant and dislodging the spores with a sterile loop. The cell/spore suspension is standardized by controlling incubation time, temperature, and the volume of the diluent. The suspension is then used to inoculate the vessels containing the broth compound.
(§5) The vessels are then incubated at the appropriate temperature. After the incubation, the vessels are examined for growth/no growth. The minimum inhibitory concentration (MIC) is defined as the lowest concentration of compound that results in complete inhibition of growth of the test organism.
(§6) These five compounds were tested side-by-side against six organisms, Pseudomonas aeruginosa (P. aeruginosa), Klebsiella pneurnoniae (K. pneumoniae), Enterobacter aerogenes (E. aerogenes), Proteus mirabilis (P. mirabilis), Staphylococcus aureus (S. aureus), and Aspergillus niger (A. niger). The MIC tests were performed as in example 6.

Enterobacter aerogenes = test: MIC test, side-by-side comparison; format: cell-based; conditions: Table 4 side-by-side, E. Aerogenes; for MIC: Klebsiella aerogenes
Text: as §1, §2, §3, §4, §5, §6

Klebsiella pneurnoniae = test: MIC test, side-by-side comparison; format: cell-based; conditions: for MIC: read-out: MIC Values
Text: as §1, §2, §3, §4, §5, §6

Staphylococcus aureus = test: Broth two-fold serial dilution MIC test; format: cell-based, Staphylococcus aureus (ATCC 6538)
In short: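 Broth two-fold serial dilution from 500 ppm down to 0.25 ppm, compound delivered from acetone/methanol/water stock, inoculated with standardized cell suspension and incubated at an organism-appropriate temperature. MIC is the lowest concentration giving complete growth inhibition.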

Pseudomonas aeruginosa = test: Broth two-fold serial dilution MIC test; format: cell-based, Pseudomonas aeruginosa (ATCC 15442)
In short: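 Broth two-fold serial dilution MIC (500 to 0.25 ppm) was run against Pseudomonas aeruginosa, with compound from 1% stock in acetone/methanol/water 5:3:2. Vessels inoculated with standardized broth-grown cells were incubated, then scored for growth. MIC is the lowest concentration giving complete growth inhibition.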

[1] = Aspergillus niger, Table 4 side-by-side, A. niger, read-out: MIC Values
[2] = Staphylococcus aureus, Table 4 side-by-side, S. aureus, read-out: MIC Values
[3] = Pseudomonas aeruginosa, Table 4 side-by-side, P. aeruginosa, read-out: MIC Values
[4] = Aspergillus niger, Table 2, Anig, TSB media, read-out: MIC
[5] = Escherichia coli, M9G media, read-out: MIC
[6] = Escherichia coli, TSB media, read-out: MIC
[7] = Staphylococcus aureus, Table 2, Saur, M9G media, read-out: MIC
[8] = Staphylococcus aureus, Table 2, Saur, TSB media, read-out: MIC
[9] = Pseudomonas aeruginosa, Table 2, Psae, M9G media, read-out: MIC
[10] = Pseudomonas aeruginosa, Table 2, Psae, TSB media, read-out: MIC

Compound `CCCCCCCCCCCCCC[N+]1(CC#CI)CCCCC1` [Compound 25, 1-(tetradecyl)-1-(3-iodopropargyl)-piperidinium 4-methylbenzenesulfonate] has an MIC (Aspergillus niger; [1]) of 8 µg/mL, an MIC (Aspergillus niger; Table 2, Anig, TSB media) of 8 ppm and an MIC (Escherichia coli; M9G media) of 2 ppm. The MIC (Escherichia coli; TSB media) was 16 ppm, the MIC (Proteus mirabilis) was 4 µg/mL and the MIC (Enterobacter aerogenes) was 1 µg/mL. The MIC (Klebsiella pneurnoniae) was 4 µg/mL, the MIC (Staphylococcus aureus; [2]) was 0.5 µg/mL and the MIC (Staphylococcus aureus; Table 2, Saur, M9G media) was 0.25 ppm. It also gave an MIC (Staphylococcus aureus; Table 2, Saur, TSB media) of 0.25 ppm, an MIC (Pseudomonas aeruginosa; [3]) of 8 µg/mL and an MIC (Pseudomonas aeruginosa; Table 2, Psae, M9G media) of 8 ppm. The MIC (Pseudomonas aeruginosa; Table 2, Psae, TSB media) was 2 ppm.

With `CCCCCCCCCCCCCC[N+]1(CC#CI)CCOCC1` [Compound 41, 4-tetradecyl-4-(3-iodoprolyargyl)-morpholinium benzenesulfonate] the MIC (Aspergillus niger; [1]) was 8 µg/mL, the MIC (Aspergillus niger; Table 2, Anig, TSB media) was 2 ppm and the MIC (Escherichia coli; M9G media) was < 0.25 ppm. The MIC (Escherichia coli; TSB media) was < 0.25 ppm, the MIC (Proteus mirabilis) was 4 µg/mL and the MIC (Enterobacter aerogenes) was 2 µg/mL. For the same compound, the MIC (Klebsiella pneurnoniae) was 4 µg/mL, the MIC (Staphylococcus aureus; [2]) was 0.5 µg/mL and the MIC (Staphylococcus aureus; Table 2, Saur, M9G media) was < 0.25 ppm. The MIC (Staphylococcus aureus; Table 2, Saur, TSB media) was 0.5 ppm, the MIC (Pseudomonas aeruginosa; [3]) was 8 µg/mL and the MIC (Pseudomonas aeruginosa; Table 2, Psae, M9G media) was 2 ppm. For the same compound, the MIC (Pseudomonas aeruginosa; Table 2, Psae, TSB media) was 4 ppm.

In the case of `CCCCCCCCCCCCCC[N+]1(CC#CI)CCOCC1` [Compound 42, 4-tetradecyl-4-(3-iodopropargyl)-morpholinium methanesulfonate], the MIC (Aspergillus niger; Table 2, Anig, TSB media) is reported as 1 ppm, the “MIC Values” (Aspergillus niger; Table 4 side-by-side, A. niger) is reported as 8 ppm and the MIC (Escherichia coli; M9G media) is reported as < 0.25 ppm. For the same compound, the MIC (Escherichia coli; TSB media) was < 0.25 ppm, the “MIC Values” (Proteus mirabilis) was 4 ppm and the “MIC Values” (Enterobacter aerogenes) was 1 ppm. The “MIC Values” (Klebsiella pneurnoniae; Table 4 side-by-side, K. Pneumoniae) was 4 ppm, the MIC (Staphylococcus aureus; Table 2, Saur, M9G media) was < 0.25 ppm and the MIC (Staphylococcus aureus; Table 2, Saur, TSB media) was 0.5 ppm. For the same compound, the “MIC Values” (Staphylococcus aureus; Table 4 side-by-side, S. aureus) was 1 ppm, the MIC (Pseudomonas aeruginosa; Table 2, Psae, M9G media) was 1 ppm and the MIC (Pseudomonas aeruginosa; Table 2, Psae, TSB media) was 4 ppm. For the same compound, the “MIC Values” (Pseudomonas aeruginosa; Table 4 side-by-side, P. aeruginosa) was 16 ppm.

For `CCCCCCCCCCCCCC[N+]1(CC#CI)CCCC1` [Compound 87, 1.-tetradecyl-1-(3-iodopropargyl)-pyrrolidinium n-butylsulfonate], the MIC (Aspergillus niger; Table 2, Anig, TSB media) was 4 ppm, the MIC (Escherichia coli; M9G media) was 2 ppm and the MIC (Escherichia coli; TSB media) was 4 ppm. The MIC (Staphylococcus aureus; Table 2, Saur, M9G media) was 0.25 ppm, the MIC (Staphylococcus aureus; Table 2, Saur, TSB media) was 0.25 ppm and the MIC (Pseudomonas aeruginosa; Table 2, Psae, M9G media) was 16 ppm. It also gave an MIC (Pseudomonas aeruginosa; Table 2, Psae, TSB media) of 64 ppm.

For `CCCCCCCCCCCCCCC[N+]1(CC#CI)CCOCC1` [Compound 88, 4-pentadecyl-4-(3-iodopropargyl)-morpholinium methanesulfonate], the MIC (Aspergillus niger; [4]) was 4 µg/mL, the MIC (Escherichia coli; [5]) was 2 µg/mL and the MIC (Escherichia coli; [6]) was 4 µg/mL. For the same compound, the MIC (Staphylococcus aureus; [7]) was 0.25 µg/mL, the MIC (Staphylococcus aureus; [8]) was 0.25 µg/mL and the MIC (Pseudomonas aeruginosa; [9]) was 8 µg/mL. It also gave an MIC (Pseudomonas aeruginosa; [10]) of 32 µg/mL.

`CCCCCCCCCCCCC[N+]1(CC#CI)CCOCC1` [Compound 89, 4-tridecyl-4-(3-iodopropargyl)-morpholinium methanesulfonate] showed an MIC (Aspergillus niger; [4]) of 8 µg/mL, an MIC (Escherichia coli; [5]) of 2 µg/mL and an MIC (Escherichia coli; [6]) of 8 µg/mL. For the same compound, the MIC (Staphylococcus aureus; [7]) was 1 µg/mL, the MIC (Staphylococcus aureus; [8]) was 2 µg/mL and the MIC (Pseudomonas aeruginosa; [9]) was 16 µg/mL. For the same compound, the MIC (Pseudomonas aeruginosa; [10]) was 64 µg/mL.

Work on `CCCCCCCCCCCC[N+]1(CC#CI)CCOCC1` [Compound 90, 4-dodecyl-4-(3-iodopropargyl)-morpholinium methanesulfonate] yielded an MIC (Aspergillus niger; [4]) of 16 µg/mL, an MIC (Escherichia coli; [5]) of 2 µg/mL and an MIC (Escherichia coli; [6]) of 4 µg/mL. The MIC (Staphylococcus aureus; [7]) was 2 µg/mL, the MIC (Staphylococcus aureus; [8]) was 4 µg/mL and the MIC (Pseudomonas aeruginosa; [9]) was 16 µg/mL. It also gave an MIC (Pseudomonas aeruginosa; [10]) of 125 µg/mL.

With `CCCCCCCCCC[N+]1(CC#CI)CCOCC1` [Compound 91, 4-decyl-4-(3-iodopropargyl)-morpholinium methanesulfonate] the MIC (Aspergillus niger; [4]) was 32 µg/mL, the MIC (Escherichia coli; [5]) was 4 µg/mL and the MIC (Escherichia coli; [6]) was 8 µg/mL. It also gave an MIC (Staphylococcus aureus; [7]) of 1 µg/mL, an MIC (Staphylococcus aureus; [8]) of 8 µg/mL and an MIC (Pseudomonas aeruginosa; [9]) of 250 µg/mL. For the same compound, the MIC (Pseudomonas aeruginosa; [10]) was > 500 µg/mL.
